Measured values published in patent US20250228239A1, “MOLECULES HAVING PESTICIDAL UTILITY, AND INTERMEDIATES, COMPOSITIONS, AND PROCESSES, RELATED THERETO” (priority 2024, published 2025).
Like-named read-outs stand apart in the source and are kept apart here.

Key:
Type in all cases: in vivo
[1] = system: Beet Armyworm (Spodoptera exigua, LAPHEG); test: Bioassays on Beet Armyworm (BAW), 128-well diet tray assay; conditions: Spodoptera exigua
In short: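 One to five second-instar larvae per well on artificial diet surface-treated with 50 μg/cm^2 test molecule (applied in 90:10 acetone-water, dried), eight wells per compound. Trays held vented at 25° C., 14:10 light-dark for five to seven days; percent mortality averaged over the eight wells.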

[2] = system: Cabbage Looper (Trichoplusia ni, TRIPNI); test: Bioassays on Cabbage Looper (CL), 128-well diet tray assay; conditions: Trichoplusia ni
In short: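 Test molecule was dissolved in 90:10 acetone-water, applied to artificial diet at 50 μg/cm^2 and allowed to dry. Second-instar larvae were then added, one to five per well, and trays held at 25° C for five to seven days before mortality was scored and averaged.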

[3] = system: Yellow Fever Mosquito (Aedes aegypti, AEDSAE); conditions: for YFM rating: Table ABC / ABC-DP rating
In short: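 Larvae ~1 day old, in liver powder/water; compound from 4000 ppm DMSO stock diluted with water/acetone (90:10); 6 reps; lidded, RT, 3 d; mortality scored per well, rated.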

[4] = Table ABC: Biological Results, species BAW, read-out: BAW
[5] = Table ABC: Biological Results, species CL, read-out: CL
[6] = Table ABC: Biological Results, species YFM
[7] = Beet Armyworm, rating class, read-out: BAW
[8] = Cabbage Looper, rating class, read-out: CL
[9] = Yellow Fever Mosquito, rating class
[10] = Beet Armyworm, Table ABC / ABC-DP rating, read-out: BAW rating
[11] = Cabbage Looper, Table ABC / ABC-DP rating, read-out: CL rating

SMILES	pest or weed control at 50 µg/cm2 [1, 7]	pest or weed control at 50 µg/cm2 [2, 8]	YFM [3, 9]	pest or weed control at 50 µg/cm2 [1, 10]	pest or weed control at 50 µg/cm2 [2, 11]	YFM rating ([3]; Yellow Fever Mosquito)	other results
O=C(Nc1ccc(F)c(NC(=O)C(F)F)c1F)c1cc(NC(=O)[C@H]2[C@H](c3ccc(Cl)c(Br)c3)C2(Cl)Cl)ccc1Cl (relative stereo) [F1359, trans-5-(3-(3-Bromo-4-chlorophenyl)-2,2-dichlorocyclopropane-1-carboxamido)-2-chloro-N-(3-(2,2-difluoroacetamido)-2,4-difluorophenyl)benzamide]	–	–	–	–	–	–	pest or weed control at 50 µg/cm2 [1, 4]: 50 to 100%; pest or weed control at 50 µg/cm2 [2, 5]: 50 to 100%; YFM [3, 6]: A (80–100)
O=C(Nc1cc(NC(=O)C(F)F)c(F)cc1F)c1cc(NC(=O)[C@H]2[C@H](c3cc(Cl)c(Cl)c(Cl)c3)C2(Cl)Cl)ccc1F [F1552, 5-((1R,3R)-2,2-Dichloro-3-(3,4,5-trichlorophenyl)cyclopropane-1-carboxamido)-N-(5-(2,2-difluoroacetamido)-2,4-difluorophenyl)-2-fluorobenzamide]	50 to 100%	50 to 100%	A (80–100)	–	–	–	–
O=C(Nc1ccc(F)cc1F)c1cc(NC(=O)[C@H]2[C@H](c3cc(Cl)cc(Cl)c3)C2(F)F)ccc1Cl (relative stereo) [F1058, trans-2-Chloro-5-(3-(3,5-dichlorophenyl)-2,2-difluorocyclopropane-1-carboxamido)-N-(2,4-difluorophenyl)benzamide]	–	–	–	–	–	–	pest or weed control at 50 µg/cm2 [1, 4]: 50 to 100%; pest or weed control at 50 µg/cm2 [2, 5]: 50 to 100%; YFM [3, 6]: A (80–100)
O=C(Nc1ccc(F)c(NC(=O)C(Br)Br)c1F)c1cc(NC(=O)[C@H]2[C@H](c3ccc(F)c(C(F)(F)F)c3)C2(Cl)Cl)ccc1Cl [F1355, 2-Chloro-N-(3-(2,2-dibromoacetamido)-2,4-difluorophenyl)-5-((1R,3R)-2,2-dichloro-3-(4-fluoro-3-(trifluoromethyl)phenyl)cyclopropane-1-carboxamido)benzamide]	–	–	–	–	–	–	pest or weed control at 50 µg/cm2 [1, 4]: 50 to 100%; pest or weed control at 50 µg/cm2 [2, 5]: 50 to 100%; YFM [3, 6]: A (80–100)
O=C(NNC(=O)C(F)(F)F)c1cc(NC(=O)[C@H]2[C@H](c3cc(Cl)cc(Cl)c3)C2(Cl)Cl)ccc1Cl (relative stereo) [F2515, trans-2,2-Dichloro-N-(4-chloro-3-(2-(2,2,2-trifluoroacetyl)hydrazine-1-carbonyl)phenyl)-3-(3,5-dichlorophenyl)cyclopropane-1-carboxamide]	–	–	–	50 to 100%	50 to 100%	A (80–100)	–
O=C(Nc1ccc(F)c(NC(=O)C(F)F)c1F)c1cc(NC(=O)[C@H]2[C@H](c3cccc(C(F)(F)F)c3)C2(Cl)Cl)ccc1Cl [F1675, 2-Chloro-5-((1R,3R)-2,2-dichloro-3-(3-(trifluoromethyl)phenyl)cyclopropane-1-carboxamido)-N-(3-(2,2-difluoroacetamido)-2,4-difluorophenyl)benzamide]	50 to 100%	50 to 100%	A (80–100)	–	–	–	–
O=C(Nc1ccc(F)c(NC(=O)C(Cl)Cl)c1F)c1cc(NC(=O)[C@H]2[C@H](c3cc(Cl)c(Cl)c(Cl)c3)C2(Cl)Cl)ccc1Cl [F1685, 2-Chloro-5-((1R,3R)-2,2-dichloro-3-(3,4,5-trichlorophenyl)cyclopropane-1-carboxamido)-N-(3-(2,2-dichloroacetamido)-2,4-difluorophenyl)benzamide]	50 to 100%	50 to 100%	A (80–100)	–	–	–	–
Cc1c(F)c(NC(=O)c2cc(NC(=O)[C@H]3[C@H](c4ccc(F)c(C(F)(F)F)c4)C3(Cl)Cl)ccc2Cl)cc(NC(=O)C(F)F)c1F [F1680, 2-Chloro-5-((1R,3R)-2,2-dichloro-3-(4-fluoro-3-(trifluoromethyl)phenyl)cyclopropane-1-carboxamido)-N-(5-(2,2-difluoroacetamido)-2,4-difluoro-3-methylphenyl)benzamide]	50 to 100%	50 to 100%	B (More than 0 – Less than 80)	–	–	–	–
O=C(CCCC(F)(F)F)Nc1c(F)ccc(NC(=O)c2cc(NC(=O)[C@H]3[C@H](c4ccc(F)c(C(F)(F)F)c4)C3(Cl)Cl)ccc2Cl)c1F [F1830, 2-Chloro-5-((1R,3R)-2,2-dichloro-3-(4-fluoro-3-(trifluoromethyl)phenyl)cyclopropane-1-carboxamido)-N-(2,4-difluoro-3-(5,5,5-trifluoropentanamido)phenyl)benzamide]	–	–	–	50 to 100%	50 to 100%	A (80–100)	–
CC(=NNC(=O)c1cc(NC(=O)[C@H]2[C@H](c3cc(Cl)cc(Cl)c3)C2(Cl)Cl)ccc1Cl)c1ccccc1 (relative stereo) [F3005, trans-2,2-Dichloro-N-(4-chloro-3-(2-(1-phenylethylidene)hydrazine-1-carbonyl)phenyl)-3-(3,5-dichlorophenyl)cyclopropane-1-carboxamide]	–	–	–	50 to 100%	50 to 100%	A (80–100)	mortality at 50 µg/cm2 ([1]; 168 h, second instar larvae, 50 μg/cm^2 of test molecule on artificial diet, 25° C., five to seven days, average of eight wells, read-out: BAW % Control (or Mortality) rating): 50 to 100%; mortality at 50 µg/cm2 ([2]; 168 h, second instar larvae, 50 μg/cm^2 of test molecule on artificial diet, 25° C., five to seven days, average of eight wells, read-out: CL % Control (or Mortality) rating): 50 to 100%; YFM % Control (or Mortality) rating ([3]; about 1 day-old larvae, 4000 ppm master solution diluted with 90:10 water/acetone, 15 μL per well plus 220 μL larval mixture, 3 days, mortality): A (80–100)
Cc1cc(NC(=O)[C@H]2[C@H](c3ccc(F)c(Cl)c3)C2(Cl)Cl)cc(C(=O)NCC(F)(F)F)c1F (relative stereo) [F2030, trans-5-(2,2-Dichloro-3-(3-chloro-4-fluorophenyl)cyclopropane-1-carboxamido)-2-fluoro-3-methyl-N-(2,2,2-trifluoroethyl)benzamide]	–	–	–	50 to 100%	50 to 100%	A (80–100)	–
O=C(NCCCCNC(=O)C(F)(F)C(F)(F)F)c1cc(NC(=O)[C@H]2[C@H](c3cc(Cl)cc(Cl)c3)C2(Cl)Cl)ccc1Cl (relative stereo) [F2098, trans-2-Chloro-5-(2,2-dichloro-3-(3,5-dichlorophenyl)cyclopropane-1-carboxamido)-N-(4-(2,2,3,3,3-pentafluoropropanamido)butyl)benzamide]	–	–	–	50 to 100%	50 to 100%	B (More than 0 – Less than 80)	–
O=C(NNC(=O)c1cc(NC(=O)[C@H]2[C@H](c3cc(Cl)cc(Cl)c3)C2(Cl)Cl)ccc1Cl)c1ccccn1 (relative stereo) [F2531, trans-2,2-Dichloro-N-(4-chloro-3-(2-picolinoylhydrazine-1-carbonyl)phenyl)-3-(3,5-dichlorophenyl)cyclopropane-1-carboxamide]	–	–	–	50 to 100%	50 to 100%	A (80–100)	–
CC(=O)Nc1ccc(NC(=O)c2cc(NC(=O)[C@H]3[C@H](c4ccc(F)c(Cl)c4)C3(Cl)Cl)cc(C)c2Cl)cc1 (relative stereo) [F1186, trans-N-(4-Acetamidophenyl)-2-chloro-5-(2,2-dichloro-3-(3-chloro-4-fluorophenyl)cyclopropane-1-carboxamido)-3-methylbenzamide]	–	–	–	–	–	–	pest or weed control at 50 µg/cm2 [1, 4]: 50 to 100%; pest or weed control at 50 µg/cm2 [2, 5]: 50 to 100%; YFM [3, 6]: A (80–100)
Cc1c(NC(=O)c2cc(NC(=O)[C@H]3[C@H](c4ccc(F)c(C(F)(F)F)c4)C3(Cl)Cl)ccc2Cl)cccc1NC(=O)C(F)(F)F [F1451, 2-Chloro-5-((1R,3R)-2,2-dichloro-3-(4-fluoro-3-(trifluoromethyl)phenyl)cyclopropane-1-carboxamido)-N-(2-methyl-3-(2,2,2-trifluoroacetamido)phenyl)benzamide]	50 to 100%	50 to 100%	A (80–100)	–	–	–	–
